Results: patent US20250367160A1, “USE OF GUAIJAVERIN IN PREPARATION OF EYE PROTECTION PRODUCT” (Innovation Center of Yangtze River Delta, ZJU, priority 2024, published 2025)

System: ocular apoptotic cells of the zebrafish
Assay: Anti-blue light eye protection efficacy, AO staining of ocular apoptotic cells in zebrafish blue light eye damage model
Type: in vivo
Conditions: 62.5 μg/mL, aqueous, 28° C., 1 d, n = 10; model group 45833 ± 4825, normal control 12203 ± 1124
Experimental: Wild-type AB zebrafish at 1 dpf were randomly selected and irradiated with blue light after membrane rupture to establish the zebrafish blue light eye damage model. Model zebrafish with desirable development status were selected at 3 dpf and randomly distributed in 6-well plates, with 30 zebrafish in each well (experimental group) were treated. Different concentrations of guaijaverin (see Table 2 for concentrations) were administered aqueously, and lutein at a concentration of 62.5 μg/mL were used as a positive control, while a normal control group and a model group were also set up, with a volume of 3 mL per well. After 1 d of treatment at 28° C., the zebrafish in each experimental group were stained with AO in the dark for 30 min and washed 3 times with standard dilution water. 10 zebrafish were randomly selected from each experimental group and photographed under a fluorescence microscope. The data were analyzed and collected using Image J software. The fluorescence intensity of ocular apoptotic cells of the zebrafish was statistically analyzed. The anti-blue light eye protection efficacy of guaijaverin was evaluated based on the statistical analysis results of the above indicators. The statistical result was expressed as mean±SE.

Structure (SMILES): CC1=C[C@H](O)CC(C)(C)[C@H]1/C=C/C(C)=C/C=C/C(C)=C/C=C/C=C(C)/C=C/C=C(C)/C=C/C1=C(C)C[C@@H](O)CC1(C)C [Lutein, lutein, reference compound]
- Fluorescence intensity of ocular apoptotic cells (pixel, mean ± SE): 21751 ± 2993 pixel
